In publication PMC5047689 (Disease Models & Mechanisms, 2016):

Tests used:
[1] = tested on: CLB-GE subcutaneous xenograft; test: Subcutaneous CLB-GE (ALK^F1174V) xenograft in nude mice; format: in vivo, mouse
Protocol: Fig. 5. […] 4.5×10^6 CLB-GE cells were injected into left shoulder subcutaneously. (A) Tumor growth curves represent the average volume of vehicle group and PF-06463922-treated group, P≤0.05 (n=5 for each group). […] (C) Average body weight on the day of sacrifice is shown, P>0.05. (D) Immunoblotting analysis of indicated proteins from tumors collected after 8 days of treatment with vehicle or PF-0646399 and relapsed tumors. Tumor lysates were harvested, pre-cleared and analyzed by western blotting for ALK, phospho-ALK-Y1278, MYCN, phospho-ERK1/2 and phospho-AKT. Pan-ERK and pan-Akt were employed as loading controls. (E) Immunohistochemical staining of tumors for […] as a measure of proliferation rate as indicated. […] Data in all graphs presented as mean±s.d.
Mice were grouped by tumor volume randomly. […] Immunohistochemistry was as described ([Yamazaki et al., 2014]). […] (n=15).

[2] = tested on: EML4-ALK-driven brain metastases; set-up: method as in Zou et al., 2015; conditions: mouse; effect reversible upon withdrawal; ref Zou et al., 2015; cited from earlier work
CLB-BAR cells = test: Resazurin cell proliferation assay, neuroblastoma cell line; format: cell-based; conditions: Homo sapiens, 120 h, read-out: IC50, inhibition of proliferation
Protocol: (§1) Fig. 1. […] (A,B) Proliferation was assessed over 5 days using the resazurin cell proliferation assay in the following neuroblastoma cell lines: CLB-BAR, CLB-GE, CLB-PE, SK-N-AS and IMR32. Neuroblastoma cell line characteristics: CLB-GE – MYCN amplified, 1p deletion, 17q gain, amplified ALK amplicon containing an ALK^F1174V mutation; CLB-BAR – amplified MYCN/ALK, Δexon 4-11, 1p deletion, 17q gain; IMR32 – MYCN, wt sequence but exons 2-4 are amplified, 1p deletion, 17q gain; CLB-PE – 1p gain, amplified MYCN, 17q gain; SK-N-AS – IGF-1 overexpressing, 1p deletion, 1q gain, 17q gain, 17 deletion. […] Cells were harvested and pre-cleared cell lysates were analyzed on SDS PAGE followed by western blotting for ALK, phospho-ALK-Y1278, phospho-ERK5, pan-ERK5 phospho-ERK1/2 and pan-ERK. Actin was employed as a loading control. Protein band intensities were quantified by Image Studio Lite 3.1 and normalized to untreated samples.
(§2) CLB-BAR, CLB-GE, CLB-PE, SK-N-AS and IMR32 neuroblastoma cells (0.25×10^6) were plated on collagen-coated 48-well plates.

CLB-GE cells = test: as above; format: cell-based; conditions: Homo sapiens, 120 h, read-out: IC50, inhibition of proliferation
Protocol: Fig. 1. […] Treatment of neuroblastoma cells with the ALK TKIs crizotinib and PF-06463922. (A,B) Proliferation was assessed over 5 days using the resazurin cell proliferation assay in the following neuroblastoma cell lines: CLB-BAR, CLB-GE, CLB-PE, SK-N-AS and IMR32. Neuroblastoma cell line characteristics: CLB-GE – MYCN amplified, 1p deletion, 17q gain, amplified ALK amplicon containing an ALK^F1174V mutation; CLB-BAR – amplified MYCN/ALK, Δexon 4-11, 1p deletion, 17q gain; IMR32 – MYCN, wt sequence but exons 2-4 are amplified, 1p deletion, 17q gain; CLB-PE – 1p gain, amplified MYCN, 17q gain; SK-N-AS – IGF-1 overexpressing, 1p deletion, 1q gain, 17q gain, 17 deletion. […] Cells were harvested and pre-cleared cell lysates were analyzed on SDS PAGE followed by western blotting for ALK, phospho-ALK-Y1278, phospho-ERK5, pan-ERK5 phospho-ERK1/2 and pan-ERK. Actin was employed as a loading control. Protein band intensities were quantified by Image Studio Lite 3.1 and normalized to untreated samples.
The neuroblastoma CLB cell lines were from Valerie Combaret (Centre Leon Berard, France) under material transfer agreement and all cell lines were authenticated during the investigation with Affymetrix Cytoscan High Density array and compared with earlier cytoscans ([Schleiermacher et al., 2003]). […]

[3] = biological target: ALK kinase domain mutants; test: In vitro kinase assay, summary over ALK kinase domain mutants; format: biochemical, human; conditions: including ALK^G1269A, read-out: inhibitor level for 50% reduction in activity, all kinase domain mutations tested
[4] = tested on: ALK (phospho-ALK-Y1278) and downstream signaling; test: Immunoblotting of ALK signaling in CLB-BAR and CLB-GE neuroblastoma cells; format: cell-based, human; conditions: 6 h treatment, western blot
Protocol: as §1, §2

CLB-PE cells = test: Resazurin cell proliferation assay, neuroblastoma cell line; format: cell-based, human
Protocol: as §1, §2

IMR32 cells = test: as above; format: cell-based, human
Protocol: as §1, §2

SK-N-AS cells = test: as above; format: cell-based, human
Protocol: as §1, §2

[5] = set-up: method as in Johnson et al., 2014; Zou et al., 2015; conditions: ref Johnson et al., 2014, Zou et al., 2015, cited from earlier work
[6] = 10 mg/kg twice per day, oral gavage, 7 days
[7] = 10 mg/kg twice per day, tumor lysates, western blot

| Structure (SMILES) | Ki-67 staining of tumors ([1]; 10 mg/kg twice per day, immunohistochemistry) | body weight during treatment [1, 6] | tumor size during treatment [1, 6] | MYCN expression in tumors [1, 7] | phosphorylated ALK, ERK1/2 and PKB/Akt in tumors [1, 7] | tumor re-growth after cessation of therapy ([1]; after 7 days of 10 mg/kg twice per day, treatment discontinued) | tumor volume and survival [2] | IC50 (CLB-BAR cells) | IC50 (CLB-GE cells) | IC50 [3] | ALK Y1278 phosphorylation [4] | downstream signaling, pERK1/2 and pERK5 [4] | decrease in proliferation at high doses (CLB-PE cells; high doses (500 nM)) | inhibition of proliferation (CLB-PE cells; increasing doses, 5 days) | decrease in proliferation at high doses (IMR32 cells; high doses (500 nM)) | inhibition of proliferation (IMR32 cells; increasing doses, 5 days) | decrease in proliferation at high doses (SK-N-AS cells; high doses (500 nM)) | inhibition of proliferation (SK-N-AS cells; increasing doses, 5 days) | half-life ([5]; preclinical animal model) | central nervous system penetration [5] |
| --- | --- | --- | --- | --- | --- | --- | --- | --- | --- | --- | --- | --- | --- | --- | --- | --- | --- | --- | --- | --- |
| C[C@H]1Oc2cc(cnc2N)-c2c(nn(C)c2C#N)CN(C)C(=O)c2ccc(F)cc21 [PF-06463922, (10R)-7-amino-12-fluoro-2,10,16-trimethyl-15-oxo-10,15,16,17-tetrahydro-2H-8,4-(metheno)pyrazolo[4,3-h][2,5,11]-benzoxadiazacyclotetradecine-3-carbonitrile] | reduced staining of the proliferation marker Ki-67 | no observed loss of body weight | no increase of tumor size during treatment | reduced expression of MYCN | Inhibition of phosphorylated ALK, ERK1/2 and PKB/Akt was observed | Tumor re-growth was observed 7 days after cessation of therapy | regression of tumor volume and prolonged mouse survival | 16 ± 2 nM | 25 ± 2 nM | < 6.5 nM | loss of tyrosine 1278 (Y1278) phosphorylation on ALK | inhibition of downstream signaling | not observed | did not observe inhibition of proliferation | not observed | did not observe inhibition of proliferation | not observed | did not observe inhibition of proliferation | 2.7 h | ability to penetrate the central nervous system |
| C[C@@H](Oc1cc(-c2cnn(C3CCNCC3)c2)cnc1N)c1c(Cl)ccc(F)c1Cl [crizotinib] | – | – | – | – | – | – | – | – | 240 ± 27 nM | – | – | – | – | – | – | – | – | – | – | – |
